Data as given in PMC4549746, “Zearalenone in the Intestinal Tissues of Immature Gilts Exposed per os to Mycotoxins” (Toxins, 2015).
“Also recorded” adds a separate entry of the source.

How the values were obtained:
[1] = relative to parent compound ZEN; cited from earlier work
[2] = ZEN concentrations and carryover factor in intestinal tissues and liver of pre-pubertal gilts exposed per os (HPLC); assay type: in vivo; settings: gilts given ZEN 40 μg/kg BW daily per os, 42 days; detection limits 0.003 µg·g^−1 α-ZEL, 0.002 µg·g^−1 β-ZEL
Description: The animals were divided into an experimental group (E, n = 18) and a control group (C, n = 21). Group E animals were orally administered ZEN at 40 μg/kg BW. Group C pigs were fed a placebo. The animals were fed complete diets in a restricted feeding regimen (Table 1). The daily dose of ZEN (40 µg/kg BW) was administered to each animal individually, which corresponds to exposure to 957–1014 µg ZEN/kg of a complete diet, depending on daily feed intake. Zearalenone was biosynthesized, purified and standardized by the Department of Chemistry of the Poznań University of Life Sciences. The experiment covered a period of 42 days. The mycotoxin was administered per os daily, in gelatine capsules before the morning feeding. The ZEN dose was adjusted to the body weight of the experimental animals. The mycotoxin was administered in capsules to prevent problems associated with uneven feed intake. Mycotoxin samples were diluted in 300 μL of 96% ethyl alcohol (96% ethyl alcohol, SWW 2442-90, Polskie Odczynniki Chemiczne SA, Gliwice, Poland) to the required dose level (based on body weight). Final solutions were stored at room temperature for 12 h to evaporate the solvent. The animals were weighed every 7 days to update mycotoxin doses for each gilt. Three animals from the experimental group and the control group each were sacrificed on Days 1, 7, 14, 21, 28, 35 and 42 (a total of 6 gilts in each week of exposure), excluding day 1, when only 3 control group animals were scarified. Every week, tissue samples were collected from the porcine gastrointestinal tract (duodenum, first and middle sections, jejunum, ileum, cecum, ascending colon, transverse colon, descending colon, middle section, and the liver, left lobe). Tissue samples were collected from the whole intestinal cross-sections.
Post-mortem tissue samples were collected from the duodenum, jejunum, ileum, cecum, ascending colon, transverse colon, descending colon and the liver after rinsing with phosphate buffer. Pure tissues were stored at −80 °C until shredding and extraction.
Tissue samples (2 g) were homogenized with 9 cm^3 of methanol for 4 min; they were transferred to centrifuge tubes with a minimal amount of the sediment, and the remainder was combined with 5 cm^3 of methanol and repeatedly homogenized. The extracts were combined and centrifuged for 10 min. The supernatant was transferred to a graduated test tube; its volume was read from the scale, and it was evaporated under a stream of nitrogen at a temperature of 60 °C to 0.1–0.2 cm^3 of water. The evaporated product was combined with 2 cm^3 of deionized water, 2 cm^3 of 0.2 M sodium acetate and 500 µL of […] solution. After 16 h of incubation at 37 °C, the reaction was stopped by adding 0.5 cm^3 of acetonitrile. The mixture was quantitatively transferred to a centrifuge tube; it was combined with 10 cm^3 of deionized water and centrifuged for 10 min at 3500 rpm. The supernatant was applied to the Zearala-Test™ column at the rate of 1–2 drops per second. Mycotoxins were eluted from the column with 1.5 mL of methanol; the solvent was evaporated, and the residue was reconstituted with 1 mL of methanol for HPLC analysis.
The concentrations of ZEN and its derivatives were determined by HPLC with the use of the Waters 2695 Separations Module, Waters 2475 Multi λ Fluorescence Detector and Waters 2996 Array Detector. Excitation and emission wavelengths were 274 and 440 nm, respectively. The reverse-phase column was C-18 Nova Pak (3.9 × 150 mm), and the mobile phase was acetonitrile-water-methanol (46:46:8, v/v/v) at a flow rate of 0.5 mL·min^−1. The mycotoxins were quantified by measuring the […] of the peaks based on the relevant calibration curves (correlation coefficient of 0.9996 for ZEN, 0.9989 for α-ZEL and 0.9976 for β-ZEL). Detection limits were determined at 0.001 µg·g^−1 for ZEN, 0.003 µg·g^−1 for α-ZEL and 0.002 µg·g^−1 for β-ZEL. […]

[3] = set-up: method as in PMID 15972077; settings: animal feed naturally contaminated with ZEN and α-ZEL; cited from earlier work

| Structure (SMILES) | estrogenic activity in comparison to ZEN [1] | concentrations of ZEN metabolites in the digestive tract and the liver [2] | absorbed from the duodenum [3] [%] |
| --- | --- | --- | --- |
| C[C@H]1CCC[C@H](O)CCC/C=C/c2cc(O)cc(O)c2C(=O)O1 [α-ZEL, α-zearalenol] | three-fold or even four-fold higher; also recorded: three- to four-fold higher | below the sensitivity of the method | 65 |
| C[C@H]1CCC[C@@H](O)CCC/C=C/c2cc(O)cc(O)c2C(=O)O1 [β-ZEL, β-zearalenol] | – | below the sensitivity of the method | – |
